Assay results as given in ChEMBL document CHEMBL5608184, “Discovery and mechanistic insights into thieno[3,2-d]pyrimidine and heterocyclic fused pyrimidines inhibitors targeting tubulin for cancer therapy” (Eur J Med Chem, 2024).
The source made the active and inactive calls. The calls are words filed in the database; no cut-off is given here.

Columns and labels:
A2780 = experiment: Antiproliferative activity against human A2780 cells incubated for 48 hrs by CCK8 assay; format: functional, cell-based; conditions: A2780, 48 h
SK-OV-3 [1] = experiment: Antiproliferative activity against human SK-OV-3 cells incubated for 48 hrs by CCK8 assay; format: functional, cell-based; conditions: SK-OV-3, 48 h
HCC827 = experiment: Antiproliferative activity against human HCC827 cells incubated for 48 hrs by CCK8 assay; format: functional, cell-based; conditions: HCC827, 48 h
A549 = experiment: cells; conditions: Homo sapiens, A549, 48 h
Description: Antiproliferative activity against human A549 cells incubated for 48 hrs by CCK8 assay

SK-OV-3 [2] = experiment: Induction of apoptosis in human SK-OV-3 cells assessed as necrotic cells at 5 nM incubated for 48 hrs by Annexin V-APC-A/7-AAD-A staining based flow cytometry (reference value: 0.21 %); format: functional
SK-OV-3 [3] = experiment: Induction of apoptosis in human SK-OV-3 cells assessed as late apoptotic cells at 5 nM incubated for 48 hrs by Annexin V-APC-A/7-AAD-A staining based flow cytometry (reference value: 1.22 %); format: functional
SK-OV-3 [4] = experiment: Induction of apoptosis in human SK-OV-3 cells assessed as early apoptotic cells at 5 nM incubated for 48 hrs by Annexin V-APC-A/7-AAD-A staining based flow cytometry (reference value: 1.10 %); format: functional
SK-OV-3 [5] = experiment: Induction of apoptosis in human SK-OV-3 cells assessed as viable cells at 5 nM incubated for 48 hrs by Annexin V-APC-A/7-AAD-A staining based flow cytometry (reference value: 97.17 %); format: functional; conditions: read-out: Activity
SK-OV-3 [6] = experiment: Induction of apoptosis in human SK-OV-3 cells assessed as viable cells at 5 nM incubated for 48 hrs by Annexin V-APC-A/7-AAD-A staining based flow cytometry (reference value: 97.50 %); format: functional; conditions: read-out: Activity
SK-OV-3 [7] = experiment: Induction of apoptosis in human SK-OV-3 cells assessed as early apoptotic cells at 5 nM incubated for 48 hrs by Annexin V-APC-A/7-AAD-A staining based flow cytometry (reference value: 1.12 %); format: functional
SK-OV-3 [8] = experiment: Induction of cell cycle arrest at G2/M phase in human SK-OV-3 cells at 5 nM incubated for 24 hrs by PI staining based flow cytometry (reference value: 30.13 %); format: functional
SK-OV-3 [9] = experiment: Induction of apoptosis in human SK-OV-3 cells assessed as necrotic cells at 5 nM incubated for 48 hrs by Annexin V-APC-A/7-AAD-A staining based flow cytometry (reference value: 0.48 %); format: functional
[10] = Antiproliferative activity against Paclitaxel-resistant human A2780 cells incubated for 48 hrs by CCK8 assay; format: functional, cell-based; conditions: Paclitaxel-resistant A2780, 48 h
SK-OV-3 [11] = experiment: Induction of cell cycle arrest at G2/M phase in human SK-OV-3 cells at 5 nM incubated for 24 hrs by PI staining based flow cytometry (reference value: 29.73 %); format: functional
SK-OV-3 [12] = experiment: Induction of apoptosis in human SK-OV-3 cells assessed as late apoptotic cells at 5 nM incubated for 48 hrs by Annexin V-APC-A/7-AAD-A staining based flow cytometry (reference value: 1.20 %); format: functional
Tubulin = experiment: Binding affinity to CM5-chip immobilized tubulin (unknown origin) assessed as dissociation constant by SPR analysis; format: protein-complex assay, Homo sapiens
Tubulin (Homo sapiens) = Tubulin (Homo sapiens) (UniProt P68371+Q9H4B7+P0DPH7+P68366+Q13509+Q71U36+P04350+Q3ZCM7+P07437+P68363+Q9BQE3+Q6PEY2+Q13885+Q9BVA1+Q9BUF5); experiment: Inhibition of tubulin polymerization in human SK-OV-3 assessed as disruption of microtubule organization at 2 nM incubated for 24 hrs by immunofluorescence based analysis; format: cell-based
Sus scrofa = species on record: Sus scrofa; experiment: Inhibition of porcine brain tubulin polymerization at 10 uM measured for 60 min by fluorescence based assay

SMILES | IC50 (A2780) [µM] | IC50 (SK-OV-3 [1]) [µM] | IC50 (HCC827) [µM] | IC50 (A549) [µM] | other results
COc1ccc(Nc2nc(Cl)nc3ccsc23)cc1 | > 1 | > 1 | > 1 | > 1 | –
COc1cc(OC)cc(N(C)c2nc(Cl)nc3ccsc23)c1 | 0.651 | 0.265 | 0.431 | 0.785 | –
COc1ccc(N(C)c2nc(NC3CCCC3)nc3ccsc23)cc1 | > 1 | 0.741 | > 1 | > 1 | –
COc1ccc2c(c1)CCN2c1nc(Cl)nc2ccsc12 | > 1 | > 1 | > 1 | > 1 | –
COc1cc2c(c(OC)c1OC)-c1ccc(OC)c(=O)cc1[C@@H](NC(C)=O)CC2 [COLCHICINE] | 0.0124 | 0.0102 | 0.00931 | – | Activity (SK-OV-3 [2]): 0.38%; Activity (SK-OV-3 [3]): 2.01%; Activity (SK-OV-3 [4]): 2.15%; viability at 0.005 µM (SK-OV-3 [5]): 96.2%; viability at 0.005 µM (SK-OV-3 [6]): 95.9%; Activity (SK-OV-3 [7]): 1.47%; Activity (SK-OV-3 [8]): 34.8%; Activity (SK-OV-3 [9]): 0.28%; IC50 [10]: 0.501 µM; Activity (SK-OV-3 [11]): 34.38%; Activity (SK-OV-3 [12]): 1.53%
CN(c1ccccc1)c1nc(Cl)nc2ccsc12 | > 1 | > 1 | > 1 | > 1 | –
COc1ccc(N(C)c2nc(NC3CCCCC3)nc3ccsc23)cc1 | > 1 | > 1 | > 1 | > 1 | –
CN(c1ccc(C(F)(F)F)cc1)c1nc(Cl)nc2ccsc12 | > 1 | > 1 | > 1 | > 1 | –
CN(c1ccc2c(c1)OCO2)c1nc(Cl)nc2ccsc12 | 0.411 | 0.172 | 0.308 | 0.634 | –
CN(c1ccc(C(F)F)cc1)c1nc(Cl)nc2ccsc12 | > 1 | > 1 | > 1 | > 1 | –
COc1ccc(N(C)c2nc(N3CCN(C)CC3)nc3ccsc23)cc1 | > 1 | > 1 | > 1 | > 1 | –
COc1cc(N(C)c2nc(Cl)nc3ccsc23)cc(OC)c1OC | > 1 | > 1 | > 1 | > 1 | –
CN(c1ccc(F)cc1)c1nc(Cl)nc2ccsc12 | > 1 | > 1 | > 1 | > 1 | –
COc1ccc(Oc2nc(Cl)nc3ccsc23)cc1 | > 1 | > 1 | > 1 | > 1 | –
COc1ccc(/C=C\c2cc(OC)c(OC)c(OC)c2)cc1O [COMBRETASTATIN A4] | 0.00215 | 0.00142 | 0.00225 | 0.00257 | –
COc1ccc(N(C)c2nc(N3CCCC3)nc3ccsc23)cc1 | > 1 | > 1 | > 1 | > 1 | –

Continued by falling IC50 (A2780), values first:

IC50 (A2780) [µM] | IC50 (SK-OV-3 [1]) [µM] | IC50 (HCC827) [µM] | IC50 (A549) [µM] | SMILES | other results
0.393 | 0.101 | 0.346 | 0.601 | CN(c1ccc(OC(F)(F)F)cc1)c1nc(Cl)nc2ccsc12 | –
0.307 | 0.0587 | 0.228 | 0.699 | COc1ccc(N(C)c2nc(N3CCC3)nc3ccsc23)cc1 | –
0.225 | 0.0507 | 0.13 | 0.285 | COc1ccc(N(C)c2nc(N(C)C)nc3ccsc23)cc1 | –
0.225 | 0.0469 | 0.14 | 0.388 | COc1cccc(N(C)c2nc(Cl)nc3ccsc23)c1 | –
0.225 | 0.0393 | 0.225 | 0.588 | COc1ccc(N(C)c2nc(Cl)nc3[nH]ccc23)cc1 | –
0.119 | 0.0919 | 0.113 | 0.211 | COc1ccc(N(C)c2nc(NC3CCC3)nc3ccsc23)cc1 | –
0.119 | 0.0316 | 0.052 | 0.238 | COc1c(F)cc(N(C)c2nc(Cl)nc3ccsc23)cc1F | –
0.0778 | 0.0449 | 0.0492 | 0.0881 | COc1ccc(N(C)c2ncnc3ccsc23)cc1 | –
0.0734 | 0.0232 | 0.054 | 0.12 | COc1ccc(N(C)c2nc(Cl)nc3c2ccn3C)cc1 | –
0.0611 | 0.0349 | 0.021 | 0.207 | COc1ccc(N(C)c2nc(N)nc3ccsc23)cc1 | –
0.0509 | 0.0529 | 0.0318 | 0.16 | CCNc1nc(N(C)c2ccc(OC)cc2)c2sccc2n1 | –
0.0311 | 0.038 | 0.0294 | 0.0781 | COc1ccc(Sc2nc(Cl)nc3ccsc23)cc1 | –
0.0304 | 0.0253 | 0.0198 | 0.0732 | COc1ccc(N(C)c2nc(NC3CC3)nc3ccsc23)cc1 | –
0.028 | 0.0141 | 0.0198 | 0.0276 | Cc1nn(C)c2ccc(N(C)c3nc(Cl)nc4ccsc34)cc12 | –
0.0226 | 0.00902 | 0.0186 | 0.0204 | COc1ccc(N(C)c2nc(Cl)nc3cc[nH]c23)cc1 | –
0.0157 | 0.00622 | 0.00902 | 0.0148 | COc1ccc(N(C)c2nc(C)nc3ccsc23)cc1 | –
0.00726 | 0.00583 | 0.00855 | 0.00863 | COc1ccc(N(C)c2nc(Cl)nc3ccsc23)cc1 | Kd (Tubulin): 29.7 µM
0.00628 | 0.00286 | 0.00464 | 0.00905 | COc1ccc(N(C)c2nc(Cl)nc3ccoc23)cc1 | –
0.00544 | 0.00495 | 0.00516 | 0.00632 | COc1ccc(N(C)c2nc(Cl)nc3sccc23)cc1 | –
0.00468 | 0.00272 | 0.00225 | 0.00513 | COc1ccc2c(c1)CCCN2c1nc(Cl)nc2ccsc12 | –
0.00316 | 0.00206 | 0.00165 | 0.00257 | COc1ccc(N(C)c2nc(Cl)nc3ccsc23)cc1F | –
0.00156 | 0.00122 | 0.00156 | 0.00172 | CN(c1ccc2c(ccn2C)c1)c1nc(Cl)nc2ccsc12 | –
0.00131 | 0.00119 | 0.00125 | 0.00312 | CC(=O)O[C@H]1C(=O)[C@@]2(C)[C@H]([C@H](OC(=O)c3ccccc3)[C@]3(O)C[C@H](OC(=O)[C@H](O)[C@@H](NC(=O)c4ccccc4)c4ccccc4)C(C)=C1C3(C)C)[C@]1(OC(C)=O)CO[C@@H]1C[C@@H]2O [PACLITAXEL] | inhibition (Tubulin (Homo sapiens)): inactive; inhibition (Sus scrofa): inactive; IC50 [10]: 3.82 µM
0.00109 | 0.00078 | 0.00125 | 0.00128 | COc1ccc(N(C)c2nc(Cl)nc3ccccc23)cc1 | –
